pIC50: −log10 of the molar value. Where two headings read alike, the source gives them in different places.

In test [1] the test system is adult rat dermal fibroblasts (RDF). Description: Resazurin viability assay, senescent vs proliferating rat dermal fibroblasts. It counts as cell-based. Conditions: Rattus norvegicus, Fibroblast, 72 hour exposure, resazurin. Here is the method: (§1) Cytotoxicity of A1.1 analogs against bleomycin-induced senescent human NDFs and rat dermal fibroblasts (RDFs). Activity of analogs was assessed from dose-response curves against irradiation- or bleomycin-induced senescent and proliferating cells to calculate IC50s (uM). The fold difference of proliferating versus senescent cell IC50s was used to assess the level of specific anti-senescent activity of the compounds.
(§2) For generation senescent human neonatal dermal fibroblasts (NDFs) and adult rat dermal fibroblasts (RDFs), cells are treated at ˜10 ug/ml bleomycin for 3 days (for bleomycin-induced senescence) or irradiated once at 20 Gy using a gamma irradiator (Cs source), followed by at least 7 day recovery in fresh medium for induction of senescence. Senescent and non-senescent (proliferating) cells for each cell line are plated into 384-w plate, followed by 72 hour exposure to a dose titration of compounds. Viability measurements are estimated using the resazurin viability assay. Using GraphPad Prism 5, the IC50 values are calculated from the non-linear regression of log-transformed compound concentrations versus dose-response normalized to background and non-treated controls.

Test [2] concerns human neonatal dermal fibroblasts (NDF). The test can be described thus: Resazurin viability assay, senescent vs proliferating/quiescent human neonatal dermal fibroblasts. It counts as cell-based. Conditions: Homo sapiens, Fibroblast, 72 h, 72 hour exposure, resazurin. Here is the method:
FIG. 2. Compound A1.1 selectively kills senescent human neonatal dermal fibroblasts (NDF) cells in a dose- and time-dependent manner. (FIG. 2A) Normal proliferating and quiescent NDF cells, and the cells made senescent via exposure to genotoxic agents (doxorubicin, bleomycin and gamma-irradiation) were incubated with increasing concentrations of A1.1. At 72 hours post-treatment cell viability was measured via resazurin viability assay. (FIG. 2B) Compound A1.1 selectively kills senescent NDF cells in time-dependent manner discriminating between acute genotoxic stress and senescence. Acutely damaged NDF cells were irradiated with 4 Gy gamma-irradiation 24 hours before A1.1 treatment. Senescent NDF cells were treated with bleomycin or irradiated with 15 Gy and incubated for 14 days to induce senescence before treatment with A1.1. Proliferating acutely damaged and senescent NDF cell were treated with 1.875-30 μM A1.1 and viable cells were measured at 72 hours after treatment. Average and standard deviation are shown.
Normal proliferating and quiescent NDF cells, and the cells made senescent via exposure to genotoxic agents (doxorubicin, bleomycin and gamma-irradiation) were incubated with increasing concentrations of A1.1. At 72 hours post-treatment cell viability was measured via resazurin viability assay.
A1.1 selectively kills senescent human neonatal dermal fibroblasts (NDF) cells in time-dependent manner discriminating between acute genotoxic stress and senescence ([…]). Acutely damaged NDF cells were irradiated with 4 Gy gamma-irradiation 24 hours before A1.1 treatment. Senescent NDF cells were treated with bleomycin or irradiated with 15 Gy and incubated for 14 days to induce senescence before treatment with A1.1.
as §1, §2
Background: Resazurin is reduced to fluorescent resorufin, in cell work by metabolically active cells.

Setting [3] is: light or radiation study, senescent RDF, irradiation-induced, read-out: IC50 RDFsen.irr.
[4] abbreviates: proliferating RDF, read-out: IC50 RDFprolif.
[5] abbreviates: senescent RDF, bleomycin-induced, read-out: IC50 RDFsen.bleo.
Setting [6] is: proliferating NDF, read-out: IC50 NDFprolif.
Where [7] appears, read: senescent NDF, bleomycin-induced, read-out: IC50 NDFsen.bleo.
The mark [8] stands for this setting: light or radiation study, senescent NDF, irradiation-induced, read-out: IC50 NDFsen.irr.

The term pIC50 denotes −log10 of the IC50, conventionally taken in molar units. `CCOC(=O)c1sc(Sc2ccccc2)c2c1CC(c1ccc(OC)cc1)C/C2=N\O` (stereo not drawn) [Example A1.5, Ethyl 4-(hydroxyimino)-6-(4-methoxyphenyl)-3-(phenylthio)-4,5,6,7-tetrahydro-benzo[c]thiophene-1-carboxylate]: the pIC50 was greater than 5.30 in test [1] (setting [3]); less than 5.00 in test [1] (setting [4]); greater than 5.30 in test [1] (setting [5]); less than 5.00 in test [2] (setting [6]); greater than 5.00 in test [2] (setting [7]); greater than 5.00 in test [2] (setting [8]).

For `CCOC(=O)c1sc(SCc2ccccc2)c2c1C(c1ccc(OC)cc1)CC/C2=N\O` (stereo not drawn) [Example A1.9, Ethyl 3-(benzylthio)-4-(hydroxyimino)-7-(4-methoxyphenyl)-4,5,6,7-tetrahydrobenzo[c]-thiophene-1-carboxylate], the pIC50 in test [1] (setting [3]) is greater than 4.70; in test [1] (setting [4]), less than 4.70; in test [1] (setting [5]), less than 4.70; in test [2] (setting [6]) it was less than 4.70; in test [2] (setting [7]), greater than 4.70; in test [2] (setting [8]), greater than 4.70.

For `COc1ccc(C2C/C(=N\O)c3sc(NC(=O)COc4ccc(C)cc4)nc3C2)cc1` (stereo not drawn) [Example A4.1], the negative logarithm of the IC50 (pIC50) in test [1] (setting [3]) was greater than 5.30; in test [1] (setting [4]), greater than 5.00; in test [1] (setting [5]) it was greater than 5.30; in test [2] (setting [6]) it was less than 5.30; in test [2] (setting [7]), greater than 5.30; in test [2] (setting [8]), greater than 5.60.

Consider `COc1ccc(C2C/C(=N\O)c3c(SCc4ccccc4)sc(C(=O)NCc4ccccc4)c3C2)cc1` (stereo not drawn) [Example A1.14, N-benzyl-3-(benzylthio)-4-(hydroxyimino)-6-(4-methoxyphenyl)-4,5,6,7-tetrahydrobenzo[c]thiophene-1-carboxamide], for which the negative logarithm of the IC50 (pIC50) in test [1] (setting [3]) was greater than 5.60; in test [1] (setting [4]), less than 4.70; in test [1] (setting [5]), greater than 5.60; in test [2] (setting [6]), less than 4.70; in test [2] (setting [7]), greater than 5.30; in test [2] (setting [8]), greater than 5.30.

For `N#Cc1cc2c(nc1SCc1ccccc1)CC(c1ccccc1)C/C2=N\O` (stereo not drawn) [Example A3.2, 2-(Benzylthio)-5-(hydroxyimino)-7-phenyl-5,6,7,8-tetrahydroquinoline-3-carbonitrile], the negative-log IC50 (pIC50) was greater than 5.60 in test [1] (setting [3]); less than 4.70 in test [1] (setting [4]); greater than 5.30 in test [1] (setting [5]); less than 4.70 in test [2] (setting [6]); greater than 4.82 in test [2] (setting [7]); greater than 5.00 in test [2] (setting [8]).

For the molecule `COc1ccc(C2C/C(=N\O)c3c(SCc4ccccc4)sc(C(=O)NCc4ccco4)c3C2)cc1` (stereo not drawn) [Example A1.15, 3-(Benzylthio)-N-(furan-2-ylmethyl)-4-(hydroxyimino)-6-(4-methoxyphenyl)-4,5,6,7-tetrahydrobenzo[c]thiophene-1-carboxamide], the negative logarithm of the IC50 (pIC50) is greater than 5.30 in test [1] (setting [3]); less than 4.70 in test [1] (setting [4]); greater than 5.59 in test [1] (setting [5]); less than 4.70 in test [2] (setting [6]); greater than 5.30 in test [2] (setting [7]); greater than 5.30 in test [2] (setting [8]).

Consider `Nc1nc(CCCc2ccccc2)c2c(n1)CC(c1ccccc1)C/C2=N\O` (stereo not drawn) [Example A2.3, 2-Amino-7-phenyl-4-(3-phenylpropyl)-7,8-dihydroquinazolin-5(6H)-one oxime], for which the negative logarithm of the IC50 (pIC50) is less than 4.70 in test [1] (setting [4]); greater than 4.82 in test [1] (setting [5]); less than 4.70 in test [2] (setting [6]); greater than 4.70 in test [2] (setting [7]); greater than 4.70 in test [2] (setting [8]).

Regarding `COc1ccc(C2CC(=NO)c3c(SCc4ccccc4)sc(C(=O)OCc4ccccc4)c3C2)cc1` (stereo not drawn) [Example A1.8, Benzyl 3-(benzylthio)-4-(hydroxyimino)-6-(4-methoxyphenyl)-4,5,6,7-tetrahydrobenzo[c]-thiophene-1-carboxylate], the results for the pIC50 in test [2] (setting [6]) and in test [2] (setting [7]) were less than 4.70 and greater than 5.00, respectively.

`Cc1ccc(CNc2ncc3c(n2)CC(c2ccccc2)C/C3=N\O)cc1` (stereo not drawn) [Example A2.1, 2-((4-Methylbenzyl)amino)-7-phenyl-7,8-dihydroquinazolin-5(6H)-one oxime]: the pIC50 in test [1] (setting [3]) was greater than 5.30; in test [1] (setting [4]), less than 4.70; in test [1] (setting [5]) it was greater than 5.30; in test [2] (setting [6]), less than 4.70; in test [2] (setting [7]) it was greater than 5.30; in test [2] (setting [8]), greater than 5.30.

Regarding `CCOC(=O)c1sc(SCc2ccccc2)c2c1CC(c1ccc(F)cc1)CC2=NO` (stereo not drawn) [Example A1.7, Ethyl 3-(benzylthio)-6-(4-fluorophenyl)-4-(hydroxyimino)-4,5,6,7-tetrahydrobenzo[c]-thiophene-1-carboxylate], the pIC50 is greater than 5.60 in test [1] (setting [3]); less than 5.30 in test [1] (setting [4]); greater than 5.60 in test [1] (setting [5]); less than 5.00 in test [2] (setting [6]); greater than 5.60 in test [2] (setting [7]); greater than 5.60 in test [2] (setting [8]).

With `O=C(Nc1ccccc1)c1cc2c(nc1NCCOc1ccccc1)CC(c1ccccc1)C/C2=N\O` (stereo not drawn) [Example A3.1, 5-(Hydroxyimino)-2-((2-phenoxyethyl)amino)-N,7-diphenyl-5,6,7,8-tetrahydroquinoline-3-carboxamide], the negative logarithm of the IC50 (pIC50) is greater than 5.60 in test [1] (setting [3]); less than 4.70 in test [1] (setting [4]); greater than 5.60 in test [1] (setting [5]); greater than 5.30 in test [2] (setting [6]); greater than 5.60 in test [2] (setting [7]); greater than 5.60 in test [2] (setting [8]).

For `O/N=C1\CC(c2ccccc2)Cc2nc(NCCOc3ccccc3)ncc21` (stereo not drawn) [Example A2.2, 2-((2-Phenoxyethyl)amino)-7-phenyl-7,8-dihydroquinazolin-5(6H)-one oxime], the pIC50 in test [1] (setting [3]) was greater than 5.60; in test [1] (setting [4]) it was less than 4.70; in test [1] (setting [5]), greater than 5.60; in test [2] (setting [6]), less than 4.70; in test [2] (setting [7]), greater than 5.60; in test [2] (setting [8]) it was greater than 5.30.

On to `O/N=C1\CC(c2ccccc2)Cc2nc(NCc3ccccc3)sc21` (stereo not drawn) [Example A4.2, 2-(Benzylamino)-5-phenyl-5,6-dihydrobenzo[d]thiazol-7(4H)-one oxime], for which the pIC50 is greater than 5.00 in test [1] (setting [3]); less than 4.70 in test [1] (setting [4]); greater than 5.00 in test [1] (setting [5]); less than 4.70 in test [2] (setting [6]); greater than 4.82 in test [2] (setting [7]); greater than 4.82 in test [2] (setting [8]).

Take `CC1(C)CC(=NO)c2c(SCc3ccccc3)sc(C(=O)NCc3ccccc3)c2C1` [Example A1.4, N-benzyl-3-(benzylthio)-4-(hydroxyimino)-6,6-dimethyl-4,5,6,7-tetrahydrobenzo[c]thiophene-1-carboxamide]: the negative-log IC50 (pIC50) in test [2] (setting [6]) was less than 4.70; in test [2] (setting [7]) it was greater than 5.00.
